The text below walks through data of patent US8097590B2, “α-MSH-antagonist dipeptide conjugates” (Centre National de la Recherche Scientifique (CNRS), priority 2004, dated 2012).

Like-named read-outs stand apart in the source and are kept apart here. Non-standard residues stand in square brackets, D forms with d. Residues, ends and D or L forms follow the SMILES beside them. No end group written: not given here. *: point of attachment. Palmitoyl = CCCCCCCCCCCCCCCC(=O)*

Assay [1] deals with receptor MC1. The settings on record: Jayawickreme et al., J. Biol. Chem. 1994; cited from earlier work.
Another assay addresses T1, human MC1 receptor (Homo sapiens, UniProt Q01726).
T1 construct: endogenous in cells; host or cells: M4Be human melanoma (melanocyte) cell line
The experiment in a line: Inhibition of AMPc production induced by α-MSH on M4Be cells. In kind it is cell-based. The settings on record: M4Be human cell line, 5×10^−8 M α-MSH. How it is done: Five Palm-dipeptides according to this invention were introduced at different concentrations and each measurement was made in triplicate. Two or three series of experiments were made.
The M4Be human cell line (Jacubovich et al. Cancer Immunol. Immunother. 1979, 7, 59-64), a melanocytes cell line capable of producing melanines, was used in this study to determine the values of CI50.
The cells were maintained in the Dulbecco modified Eagle medium with 10% of foetal calf serum (FCS), 1 mM of glutamine, 100 U/ml of penicillin and 10^−4 g/ml of streptomycine.
All cell lines were maintained at 37° C. in an atmosphere with 5% of CO2 and cell culture media were renewed every two days. The cells were applied in contact with a plate with 96 wells (Nunc, Roskilde) 24 hours before contact of dipeptides according to the invention.
Cells applied in contact the day before with 8×10^4 cells per well were put in the presence of one of the five dipeptide conjugates according to the invention at various concentrations for 10 minutes at 37° C. with 5×10^−8 M of α-MSH. After this time, the lysis of the cells was made and the AMPc content was measured using a connection test box by competition (RPN225, Amersham Pharmacia Biotech). Each independent experiment was carried out at least twice in triplicate.
The peptidic activity was determined with reference to the AMPc content synthesized by untreated cells and the production of AMPc induced by α-MSH alone. The curves were adjusted and the values of CI50 were determined with non-linear regression in the GraphPad Prism (GraphPad software, San Diego, Calif., United States).

For assay [2], the system named is receptor MC1. Conditions: Proc. Natl. Acad. Sci. (1995), 92, result in words; cited from earlier work.
Where [3] appears, read: 10 minutes at 37° C., experiment 1, read-out: CI50 (μM) exp1.
[4] abbreviates: 10 minutes at 37° C., experiment 2, read-out: CI50 (μM) exp2.
[5] abbreviates: average of the experiments, read-out: CI50 (μM) aver.
[6] abbreviates: 10 minutes at 37° C., experiment 3, read-out: CI50 (μM) exp3.

T1 sequence (Q01726 whole entry): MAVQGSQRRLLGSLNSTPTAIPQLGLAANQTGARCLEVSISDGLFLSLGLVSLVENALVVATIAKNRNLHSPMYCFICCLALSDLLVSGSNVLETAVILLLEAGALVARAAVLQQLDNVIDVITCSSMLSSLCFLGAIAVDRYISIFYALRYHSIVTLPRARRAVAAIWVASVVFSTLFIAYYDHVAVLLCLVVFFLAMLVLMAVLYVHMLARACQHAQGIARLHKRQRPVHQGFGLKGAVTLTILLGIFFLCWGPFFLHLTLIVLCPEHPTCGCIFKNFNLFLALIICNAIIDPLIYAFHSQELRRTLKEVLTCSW

As to H-MP[dF]R[dW]FKPV-NH2 [153 N-6], the Ki at receptor MC1 [1] is 0.011 µM.
For the molecule `CCCCCCCCCCCCCCCC(=O)N[C@@H](CCCNC(=N)N)C(=O)N1CCC[C@H]1C(N)=O` [Compound 49, Palm-Arg-Pro-NH2] (Palmitoyl-Arg-Pro-NH2), the IC50 on human MC1 receptor (setting [3]) was found to be 20 µM; at human MC1 receptor (setting [4]), 26 µM; at human MC1 receptor (setting [5]), 23 µM.
For the molecule [dW]-Arg-Leu-NH2, the antagonist activity result in the assay on receptor MC1 [2] is “has an antagonist activity”.
For the molecule `CCCCCCCCCCCCCCCC(=O)N[C@@H](CCCNC(=N)N)C(=O)N[C@@H](CCCNC(=N)N)C(N)=O` [Compound 41, Palm-Arg-Arg-NH2] (Palmitoyl-Arg-Arg-NH2), the IC50 at human MC1 receptor (setting [3]) amounted to 36 µM; at human MC1 receptor (setting [4]), 17 µM; on human MC1 receptor (setting [5]), 26 µM.
Consider `CCCCCCCCCCCCCCCC(=O)N[C@@H](CO)C(=O)N1CCC[C@H]1C(N)=O` [Compound 125, Palm-Ser-Pro-NH2] (Palmitoyl-Ser-Pro-NH2), for which the IC50 at human MC1 receptor (setting [3]) was determined as 45 µM; on human MC1 receptor (setting [4]), 5.5 µM; at human MC1 receptor (setting [6]), 1 µM; on human MC1 receptor (setting [5]) it was 17 µM.
As for `CCCCCCCCCCCCCCCC(=O)N[C@@H](CCCNC(=N)N)C(=O)N[C@@H](CCCCN)C(N)=O` [Compound 50, Palm-Arg-Lys-NH2] (Palmitoyl-Arg-Lys-NH2), the IC50 on human MC1 receptor (setting [3]) amounted to 48 µM; on human MC1 receptor (setting [4]) it was 9.6 µM; on human MC1 receptor (setting [5]) it was 29 µM.
Regarding `CCCCCCCCCCCCCCCC(=O)N[C@@H](CCCNC(=N)N)C(=O)N[C@@H](Cc1c[nH]cn1)C(N)=O` [Compound 39, Palm-Arg-His-NH2] (Palmitoyl-Arg-His-NH2), the IC50 at human MC1 receptor (setting [3]) worked out at 29 µM; at human MC1 receptor (setting [4]) it was 4.6 µM; on human MC1 receptor (setting [6]) it was 4.4 µM; at human MC1 receptor (setting [5]), 13 µM.
